Drawing on US20260258032A1, “TYROSINE KINASE 2 INHIBITORS AND USES THEREOF” (BIOGEN MA INC., priority 2022, published 2026), this text covers IC50 for 17 compounds.

The test system of assay [1] is Tyk2 kinase activity on STAT4. Put plainly: pSTAT4 cell assay (MSD, NK92 cells). Format: cell-based. As to conditions: compounds 1 hr, stimulated 15 minutes. In outline: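 IC50 values come from 4-parameter logistic fits of normalized percent activity. Phospho-STAT was read by MSD (anti-STAT4 antibodies) in NK92 lysates after a 15 min stimulation with 30 ng/mL IL2. The serum-starved cells had been given compound for 1 h (10 points, four-fold, top 10 μM).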

The next assay concerns the target T1, JH2 domain of human Tyk2 (Homo sapiens, UniProt P29597).
T1 construct: 10×His-tagged TYK2 JH2 domain (amino acid 575-876)
Put plainly: JH2 biochemical assay (TR-FRET probe displacement). Format: binding. As to conditions: JH2 biochemical assay. In outline: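 A probe-displacement TR-FRET readout: compounds, tested in 3-fold, 10-point dilutions starting at […], compete with 2 nM tracer for 2 nM His-tagged JH2 (residues 575-876) detected by 0.1 nM Tb-anti-His over 60 min. IC50 comes from 4-parameter fits of normalized 520/495 nm ratios.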
For orientation: TR-FRET usually uses a lanthanide donor and a delayed reading to cut background.

Counter-ions that a name gives are not always drawn.

T1 sequence (P29597 575-876): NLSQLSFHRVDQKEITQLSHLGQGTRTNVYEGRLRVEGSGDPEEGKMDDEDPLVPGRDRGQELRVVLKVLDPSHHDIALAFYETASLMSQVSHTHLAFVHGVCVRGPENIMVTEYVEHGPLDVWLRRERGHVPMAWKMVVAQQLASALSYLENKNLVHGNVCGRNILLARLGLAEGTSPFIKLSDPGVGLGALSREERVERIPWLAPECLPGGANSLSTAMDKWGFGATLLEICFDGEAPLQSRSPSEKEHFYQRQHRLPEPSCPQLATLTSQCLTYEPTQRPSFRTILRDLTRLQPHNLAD

For orientation: IC50 means the midpoint of a concentration-inhibition curve. Turning to `COC(C)(C)CNc1cc(N2CC3(CC3)c3cnc(NC(C)=O)cc32)nc(C(C)(F)F)n1` [Example 158, N-(1′-(2-(1,1-difluoroethyl)-6-((2-methoxy-2-methylpropyl)amino)pyrimidin-4-yl)-1′,2′-dihydrospiro[cyclopropane-1,3′-pyrrolo[3,2-c]pyridin]-6′-yl)acetamide trifluoroacetate], the concentration for half-maximal inhibition (IC50) (in assay [1]; on JH2 domain of human Tyk2) was no more than 10 nM throughout.
In the case of `CC(=O)Nc1cc2c(cn1)C1(CC1)CN2c1cc(NCC2(F)CC2)nc(C(C)(F)F)n1` [Example 160, N-(1′-(2-(1,1-difluoroethyl)-6-(((1-fluorocyclopropyl)methyl)amino)pyrimidin-4-yl)-1′,2′-dihydrospiro[cyclopropane-1,3′-pyrrolo[3,2-c]pyridin]-6′-yl)acetamide trifluoroacetate], the IC50 in assay [1] was 10 to 100 nM; at JH2 domain of human Tyk2 it was no more than 10 nM.
As to `COC1(CNc2cc(N3CC4(CC4)c4cnc(NC(C)=O)cc43)nc(C(C)(F)F)n2)CC1` [Example 161, N-(1′-(2-(1,1-difluoroethyl)-6-(((1-methoxycyclopropyl)methyl)amino)pyrimidin-4-yl)-1′,2′-dihydrospiro[cyclopropane-1,3′-pyrrolo[3,2-c]pyridin]-6′-yl)acetamide trifluoroacetate], the IC50 in assay [1] is 10 to 100 nM; at JH2 domain of human Tyk2 it was no more than 10 nM.
For `CC(=O)Nc1cc2c(cn1)C1(CC1)CN2c1cc(NC[C@H]2CCO2)nc(C(C)(F)F)n1` [Example 162, (R)-N-(1′-(2-(1,1-difluoroethyl)-6-((oxetan-2-ylmethyl)amino)pyrimidin-4-yl)-1′,2′-dihydrospiro[cyclopropane-1,3′-pyrrolo[3,2-c]pyridin]-6′-yl)acetamide], in that order: 10 to 100 nM and no more than 10 nM.
The corresponding values for `CC(=O)Nc1cc2c(cn1)C1(CC1)CN2c1cc(NC[C@@H]2CCO2)nc(C(C)(F)F)n1` [Example 163, (S)-N-(1′-(2-(1,1-difluoroethyl)-6-((oxetan-2-ylmethyl)amino)pyrimidin-4-yl)-1′,2′-dihydrospiro[cyclopropane-1,3′-pyrrolo[3,2-c]pyridin]-6′-yl)acetamide] are 10 to 100 nM and no more than 10 nM.
The corresponding values for `CC(=O)Nc1cc2c(cn1)C1(CC1)CN2c1cc(NCCCF)nc(C(C)(F)F)n1` [Example 164, N-(1′-(2-(1,1-difluoroethyl)-6-((3-fluoropropyl)amino)pyrimidin-4-yl)-1′,2′-dihydrospiro[cyclopropane-1,3′-pyrrolo[3,2-c]pyridin]-6′-yl)acetamide trifluoroacetate] are 10 to 100 nM and no more than 10 nM.
On to `CO[C@@H](C)[C@H](C)Nc1cc(N2CC3(CC3)c3cnc(NC(C)=O)cc32)nc(C(C)(F)F)n1` [Example 165, N-(1′-(2-(1,1-difluoroethyl)-6-(((2S,3S)-3-methoxybutan-2-yl)amino)pyrimidin-4-yl)-1′,2′-dihydrospiro[cyclopropane-1,3′-pyrrolo[3,2-c]pyridin]-6′-yl)acetamide trifluoroacetate], for which the IC50 is 10 to 100 nM in assay [1] and no more than 10 nM at JH2 domain of human Tyk2.
For `CC(=O)Nc1cc2c(cn1)C1(CC1)CN2c1cc(NC2CSC2)nc(C(C)(F)F)n1` [Example 166, N-(1′-(2-(1,1-difluoroethyl)-6-(thietan-3-ylamino)pyrimidin-4-yl)-1′,2′-dihydrospiro[cyclopropane-1,3′-pyrrolo[3,2-c]pyridin]-6′-yl)acetamide trifluoroacetate], in that order: 10 to 100 nM and no more than 10 nM.
Turning to `CCNc1cc(N2CC3(CC3)c3cnc(NC(C)=O)cc32)nc(C(C)(F)F)n1` [Example 167, N-(1′-(2-(1,1-difluoroethyl)-6-(ethylamino)pyrimidin-4-yl)-1′,2′-dihydrospiro[cyclopropane-1,3′-pyrrolo[3,2-c]pyridin]-6′-yl)acetamide trifluoroacetate], the IC50 in assay [1] was 100 to 1000 nM; on JH2 domain of human Tyk2 it was no more than 10 nM.
The corresponding values for `CC(=O)Nc1cc2c(cn1)C1(CC1)CN2c1cc(N[C@H]2C[C@@H](F)C2)nc(C(C)(F)F)n1` [Example 168, N-(1′-(2-(1,1-difluoroethyl)-6-(((1s,3s)-3-fluorocyclobutyl)amino)pyrimidin-4-yl)-1′,2′-dihydrospiro[cyclopropane-1,3′-pyrrolo[3,2-c]pyridin]-6′-yl)acetamide trifluoroacetate] are 100 to 1000 nM and 10 to 100 nM.
In the case of `CC(=O)Nc1cc2c(cn1)C1(CC1)CN2c1cc(NCC(C)F)nc(C(C)(F)F)n1` (stereo not shown) [Example 169, N-(1′-(2-(1,1-difluoroethyl)-6-((2-fluoropropyl)amino)pyrimidin-4-yl)-1′,2′-dihydrospiro[cyclopropane-1,3′-pyrrolo[3,2-c]pyridin]-6′-yl)acetamide trifluoroacetate], the IC50 is 10 to 100 nM in assay [1] and no more than 10 nM on JH2 domain of human Tyk2.
Take `CC(=O)Nc1cc2c(cn1)C1(CC1)CN2c1cc(NCCC(C)F)nc(C(C)(F)F)n1` (stereo not shown) [Example 170, N-(1′-(2-(1,1-difluoroethyl)-6-((3-fluorobutyl)amino)pyrimidin-4-yl)-1′,2′-dihydrospiro[cyclopropane-1,3′-pyrrolo[3,2-c]pyridin]-6′-yl)acetamide trifluoroacetate]: the half-inhibitory concentration (IC50) was 10 to 100 nM in assay [1] and no more than 10 nM on JH2 domain of human Tyk2.
The corresponding values for `COC(C)CNc1cc(N2CC3(CC3)c3cnc(NC(C)=O)cc32)nc(C(C)(F)F)n1` (stereo not shown) [Example 171, N-(1′-(2-(1,1-difluoroethyl)-6-((2-methoxypropyl)amino)pyrimidin-4-yl)-1′,2′-dihydrospiro[cyclopropane-1,3′-pyrrolo[3,2-c]pyridin]-6′-yl)acetamide trifluoroacetate] are 10 to 100 nM and no more than 10 nM.
For `CO[C@H]1C[C@@H](Nc2cc(N3CC4(CC4)c4cnc(NC(C)=O)cc43)nc(C(C)(F)F)n2)C1` [Example 172, N-(1′-(2-(1,1-difluoroethyl)-6-(((1s,3s)-3-methoxycyclobutyl)amino)pyrimidin-4-yl)-1′,2′-dihydrospiro[cyclopropane-1,3′-pyrrolo[3,2-c]pyridin]-6′-yl)acetamide trifluoroacetate], the IC50 in assay [1] was 10 to 100 nM; on JH2 domain of human Tyk2, no more than 10 nM.
For `COC1(C)CC1Nc1cc(N2CC3(CC3)c3cnc(NC(C)=O)cc32)nc(C(C)(F)F)n1` (stereo not shown) [Example 173, N-(1′-(2-(1,1-difluoroethyl)-6-((2-methoxy-2-methylcyclopropyl)amino)pyrimidin-4-yl)-1′,2′-dihydrospiro[cyclopropane-1,3′-pyrrolo[3,2-c]pyridin]-6′-yl)acetamide trifluoroacetate], in that order: 10 to 100 nM and no more than 10 nM.
For `CC(=O)Nc1cc2c(cn1)C1(CC1)CN2c1cc(NCC2CCN2C)nc(C(C)(F)F)n1` (stereo not shown) [Example 174, N-(1′-(2-(1,1-difluoroethyl)-6-(((1-methylazetidin-2-yl)methyl)amino)pyrimidin-4-yl)-1′,2′-dihydrospiro[cyclopropane-1,3′-pyrrolo[3,2-c]pyridin]-6′-yl)acetamide], in that order: no less than 1000 nM and 10 to 100 nM.
For `CC(=O)Nc1cc2c(cn1)C1(CC1)CN2c1cc(NC(C)C2COC2)nc(C(C)(F)F)n1` (stereo not shown) [Example 175, N-(1′-(2-(1,1-difluoroethyl)-6-((1-(oxetan-3-yl)ethyl)amino)pyrimidin-4-yl)-1′,2′-dihydrospiro[cyclopropane-1,3′-pyrrolo[3,2-c]pyridin]-6′-yl)acetamide], in that order: 100 to 1000 nM and no more than 10 nM.
